The target of one test is human plasma kallikrein (Homo sapiens (Human), UniProt P03952). The test can be described thus: Determination of the plasma kallikrein activity. Type of test: biochemical. The settings on record: plasma kallikrein from Kordia, substrate H-Pro-Phe-Arg-AMC, fluorescence. Here is the method: a.5) Determination of the Plasma Kallikrein Activity
To determine the plasma kallikrein inhibition of the substances according to the invention, a biochemical test system is used which utilizes the reaction of a peptidic plasma kallikrein substrate to determine the enzymatic activity of human plasma kallikrein. Here, plasma kallikrein cleaves from the peptic plasma kallikrein substrate the C-terminal aminomethylcoumarin (AMC), the fluorescence of which is measured. The determinations are carried out in microtitre plates.
1 μl of the diluted substance solutions is placed into each of the wells of white microtitre plates from Greiner (384 wells). 20 μl of assay buffer (50 mM Tris/HCl pH 7.4; 100 mM sodium chloride solution; 5 mM of calcium chloride solution; 0.1% of bovine serum albumin) and 20 μl of plasma kallikrein from Kordia (0.6 nM in assay buffer) are then added successively. After 15 min of incubation, the enzyme reaction is started by addition of 20 μl of the substrate H-Pro-Phe-Arg-AMC dissolved in assay buffer (10 μM in assay buffer) from Bachem, the mixture is incubated at room temperature (22° C.) for 30 min and fluorescence is then measured (excitation: 360 nm, emission: 460 nm). The measured emissions of the test batches with test substance are compared to those of control batches without test substance (only dimethyl sulphoxide instead of test substance in dimethyl sulphoxide), and IC50 values are calculated from the concentration/activity relationships.

A further test deals with human factor XIa (Homo sapiens (Human), UniProt P03951). The test can be described thus: Measurement of FXIa inhibition. The settings on record: factor XIa from Kordia, substrate Boc-Glu(OBzl)-Ala-Arg-AMC, fluorescence. The class given is biochemical. How it is done: a.1) Measurement of FXIa Inhibition
Chain of human factor XIa (P03951 388-625): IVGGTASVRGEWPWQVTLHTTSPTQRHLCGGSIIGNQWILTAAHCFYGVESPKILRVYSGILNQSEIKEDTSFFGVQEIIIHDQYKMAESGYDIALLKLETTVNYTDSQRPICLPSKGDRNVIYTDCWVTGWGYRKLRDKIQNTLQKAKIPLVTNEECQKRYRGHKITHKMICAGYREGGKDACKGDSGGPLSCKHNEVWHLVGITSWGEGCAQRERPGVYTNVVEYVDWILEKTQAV
Chain of human factor XIa (P03951 19-387 partner): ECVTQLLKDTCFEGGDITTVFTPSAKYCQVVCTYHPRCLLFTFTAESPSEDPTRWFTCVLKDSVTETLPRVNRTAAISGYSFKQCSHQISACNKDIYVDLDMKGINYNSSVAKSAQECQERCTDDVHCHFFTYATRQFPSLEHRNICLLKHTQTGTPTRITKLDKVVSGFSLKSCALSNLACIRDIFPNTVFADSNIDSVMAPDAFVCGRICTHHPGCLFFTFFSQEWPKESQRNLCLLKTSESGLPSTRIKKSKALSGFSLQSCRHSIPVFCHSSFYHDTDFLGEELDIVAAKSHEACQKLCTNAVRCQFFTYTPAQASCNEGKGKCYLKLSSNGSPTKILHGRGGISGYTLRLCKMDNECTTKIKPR
The factor XIa inhibition of the substances according to the invention is determined using a biochemical test system which utilizes the reaction of a peptidic factor XIa substrate to determine the enzymatic activity of human factor XIa. Here, factor XIa cleaves from the peptic factor XIa substrate the C-terminal aminomethylcoumarin (AMC), the fluorescence of which is measured. The determinations are carried out in microtitre plates.
1 μl of the diluted substance solutions is placed into each of the wells of white microtitre plates from Greiner (384 wells). […] After 15 min of incubation, the enzyme reaction is started by addition of 20 μl of the factor XIa substrate Boc-Glu(OBzl)-Ala-Arg-AMC dissolved in assay buffer (10 μM in assay buffer) from Bachem, the mixture is incubated at room temperature (22° C.) for 30 min and fluorescence is then measured (excitation: 360 nm, emission: 460 nm). The measured emissions of the test batches with test substance are compared to those of control batches without test substance (only dimethyl sulphoxide instead of test substance in dimethyl sulphoxide), and IC50 values are calculated from the concentration/activity relationships.

The structures appear in SMILES notation.

Chain of human plasma kallikrein (P03952 391-638): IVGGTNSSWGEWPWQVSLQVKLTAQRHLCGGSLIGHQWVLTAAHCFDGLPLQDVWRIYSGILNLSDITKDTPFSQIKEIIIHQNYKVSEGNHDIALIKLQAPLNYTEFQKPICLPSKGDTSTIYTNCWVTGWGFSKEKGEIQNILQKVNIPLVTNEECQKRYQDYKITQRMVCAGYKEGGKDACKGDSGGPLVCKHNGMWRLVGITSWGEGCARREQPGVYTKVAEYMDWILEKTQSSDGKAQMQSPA
Chain of human plasma kallikrein (P03952 20-390 partner): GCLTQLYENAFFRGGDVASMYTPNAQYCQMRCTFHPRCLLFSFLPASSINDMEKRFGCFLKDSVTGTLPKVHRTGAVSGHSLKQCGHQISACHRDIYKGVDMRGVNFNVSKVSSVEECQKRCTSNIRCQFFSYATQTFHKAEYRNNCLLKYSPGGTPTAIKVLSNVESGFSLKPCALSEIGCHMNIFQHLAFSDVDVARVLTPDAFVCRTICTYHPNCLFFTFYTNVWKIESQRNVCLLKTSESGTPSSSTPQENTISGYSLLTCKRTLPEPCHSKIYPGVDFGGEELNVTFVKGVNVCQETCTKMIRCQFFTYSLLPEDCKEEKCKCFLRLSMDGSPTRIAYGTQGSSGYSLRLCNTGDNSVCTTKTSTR

For `CCC(C(=O)Nc1ccc(C(=O)O)cc1)n1cc2c(cc1=O)-c1cc(Cl)ccc1CNC2=O` (centres unmarked) [Example 1, 4-{[2-(10-Chloro-2,5-dioxo-2,5,6,7-tetrahydro-3H-pyrido[3,4-d][2]benzazepin-3-yl)butanoyl]amino}benzoic acid], the IC50 at human plasma kallikrein was above 10000 nM; at human factor XIa, 420 nM.
As for `CCC(C(=O)Nc1ccc(-c2noc(=O)[nH]2)cc1)n1cc2c(cc1=O)-c1cc(Cl)ccc1CNC2=O` (centres unmarked) [Example 2, 2-(10-Chloro-2,5-dioxo-2,5,6,7-tetrahydro-3H-pyrido[3,4-d][2]benzazepin-3-yl)-N-[4-(5-oxo-4,5-dihydro-1,2,4-oxadiazol-3-yl)phenyl]butanamide], the IC50 is 4900 nM on human plasma kallikrein and 280 nM on human factor XIa.
On to `CCC(C(=O)Nc1ccc(C(=O)O)cc1)n1cc2c(cc1=O)-c1cc(Cl)ccc1C1(CC1)NC2=O` (centres unmarked) [Example 3, 4-{[2-(10′-Chloro-2′,5′-dioxo-5′,6′-dihydrospiro[cyclopropane-1,7′-pyrido[3,4-d][2]benzazepine]-3′(2′H)-yl)butanoyl]amino}benzoic acid], for which the IC50 at human plasma kallikrein is above 50000 nM; against human factor XIa, 180 nM.
In the case of `O=C(Cn1cc2c(cc1=O)-c1cc(Cl)ccc1CCNC2=O)Nc1ccc(C(=O)O)cc1` [Example 4, 4-{[(11-Chloro-2,5-dioxo-5,6,7,8-tetrahydropyrido[3,4-e][3]benzazocin-3(2H)-yl)acetyl]amino}benzoic acid], the IC50 against human plasma kallikrein amounted to 18000 nM; on human factor XIa, 720 nM.
With `O=C(Cn1cc2c(cc1=O)-c1cc(Cl)ccc1CCNC2=O)Nc1ccc(-c2noc(=O)[nH]2)cc1` [Example 5, 2-(11-Chloro-2,5-dioxo-5,6,7,8-tetrahydropyrido[3,4-e][3]benzazocin-3(2H)-yl)-N-[4-(5-oxo-4,5-dihydro-1,2,4-oxadiazol-3-yl)phenyl]acetamide], the IC50 on human plasma kallikrein was found to be 8300 nM; against human factor XIa, 350 nM.
For `CCC(C(=O)Nc1ccc(C(=O)O)cc1)n1cc2c(cc1=O)-c1cc(Cl)ccc1CCNC2=O` (centres unmarked) [Example 6, 4-{[2-(11-Chloro-2,5-dioxo-5,6,7,8-tetrahydropyrido[3,4-e][3]benzazocin-3(2H)-yl)butanoyl]amino}benzoic acid] the same measures were 1900 nM and 28 nM.
The like results for `CCC(C(=O)Nc1ccc(-c2noc(=O)[nH]2)cc1)n1cc2c(cc1=O)-c1cc(Cl)ccc1CCNC2=O` (centres unmarked) [Example 7, 2-(11-Chloro-2,5-dioxo-5,6,7,8-tetrahydropyrido[3,4-e][3]benzazocin-3(2H)-yl)-N-[4-(5-oxo-4,5-dihydro-1,2,4-oxadiazol-3-yl)phenyl]butanamide] were, in that order, 3300 nM and 44 nM.
For the compound `CC(C)CC(C(=O)Nc1ccc(C(=O)O)cc1)n1cc2c(cc1=O)-c1cc(Cl)ccc1CCNC2=O` (centres unmarked) [Example 8, 4-{[2-(11-Chloro-2,5-dioxo-5,6,7,8-tetrahydropyrido[3,4-e][3]benzazocin-3(2H)-yl)-4-methylpentanoyl]amino}benzoic acid], the IC50 is 680 nM against human plasma kallikrein and 36 nM against human factor XIa.
For `CC(C)CC(C(=O)Nc1ccc(-c2noc(=O)[nH]2)cc1)n1cc2c(cc1=O)-c1cc(Cl)ccc1CCNC2=O` (centres unmarked) [Example 9, 2-(11-Chloro-2,5-dioxo-5,6,7,8-tetrahydropyrido[3,4-e][3]benzazocin-3(2H)-yl)-4-methyl-N-[4-(5-oxo-4,5-dihydro-1,2,4-oxadiazol-3-yl)phenyl]pentanamide] the same measures were 3800 nM and 140 nM.
On to `CCC(C(=O)Nc1ccc(C(=O)O)cc1)n1cc2c(cc1=O)-c1cc(Cl)ccc1CC1(CC1)NC2=O` (centres unmarked) [Example 10, 4-{[2-(11′-Chloro-2′,5′-dioxo-2′,5′,6′,8′-tetrahydro-3′H-spiro[cyclopropane-1,7′-pyrido[3,4-e][3]benzazocine]-3′-yl)butanoyl]amino}benzoic acid], for which the IC50 on human plasma kallikrein came out at 2100 nM; against human factor XIa, 7.7 nM.

The term IC50 denotes the concentration at which inhibition is half-maximal.

The values are drawn from patent US10138236B2, “Factor xia-inhibiting pyridobenzazepine and pyridobenzazocine derivatives” (BAYER PHARMA AKTIENGESELLSCHAFT, priority 2014, dated 2018).
